Assay results reported in patent EP4581943A1, “AEROSOLISABLE MATERIAL FOR USE IN AN ARTICLE” (BT DE Investments Inc., priority 2024, dated 2025).

Legend:
[1] = Solubility of CBC in solvent systems, step-wise addition, visual inspection; type: physicochemical; details: cumulative CBC concentration after addition; solvent PG:VG 70:30
Protocol: (§1) Solvent systems were prepared and then CBG was added in a step-wise fashion and mixed until dissolved (according to visual inspection). The time taken for each addition to be solubilized was recorded.
A similar approach was taken as for example 1, but this time CBC was assessed.

[2] = type: physicochemical
Protocol: as §1

Row | CBG concentration the solvent system could sustain [2] [%w/w] | time taken to solubilize approximately 5% CBG [2] [h] | SMILES | Concentration [1] [%w/w]
1 | – | – | CCCCCc1cc(O)c2c(c1)OC(C)(CCC=C(C)C)C=C2 (stereo not drawn) [CBC, cannabichromene] | 3.0319
2 | ≤ 5 | > 2 | CCCCCc1cc(O)c(C/C=C(\C)CCC=C(C)C)c(O)c1 [CBG, cannabigerol] | –
